# Test system: Ramos B-Cell Line Stimulated with IL-4 (JAK-1 and JAK-3 / Stat-6, CD23)
# Assay: Assay for Ramos B-Cell Line Stimulated with IL-4 (CD23 upregulation, FACS)
# Assay type: cell-based
# Details: Homo sapiens, Ramos, human Ramos B cells, compound 1 hour, IL-4 50 units/mL for 20-24 hours, anti-CD23-PE FACS; read-out: Example 2 (IC50)
# Procedure, shortened: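 Human Ramos B cells (5×10^4 per point, RPMI with 5% serum) pre-incubated 1 hour at 37° C with compound or DMSO, then stimulated with IL-4 at 50 units/mL final for 20-24 hours. CD23 upregulation measured by flow cytometry.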
row,IC50 [µM],Compound
1,0.189,"N#CCc1ccc(Nc2ncc(F)c(Nc3cccc(OCC(N)=O)c3)n2)cc1 [Compound I-65, N4-(3-Aminocarbonylmethoxyphenyl)-N2-(4-cyanomethylphenyl)-5-fluoro-2,4-pyrimidinediamine]"
2,0.0575,"COc1ccc(Nc2nc(Nc3ccc(C(=O)Nc4ccnn4C)cc3)ncc2F)cc1Cl [Compound I-4, N4-(3-Chloro-4-methoxyphenyl)-5-fluoro-N2-[4-((1-methyl-1H-pyrazol-5-yl)aminocarbonyl)phenyl]-2,4-pyrimidinediamine]"
3,1.15,"N#CCc1ccc(Nc2nc(Nc3cccc(C#N)c3)ncc2F)cc1 [Compound I-70, N4-(4-Cyanomethylphenyl)-N2-(3-cyanophenyl)-5-fluoro-2,4-pyrimidinediamine]"
4,0.178,"NC(=O)c1ccc(Nc2ncc(F)c(Nc3cccc(-c4ncco4)c3)n2)cc1Cl [Compound I-14, N2-(4-Aminocarbonyl-3-chlorophenyl)-5-fluoro-N4-[3-(oxazol-2-yl)phenyl]-2,4-pyrimidinediamine]"
5,0.431,"CNC(=O)c1cc(Nc2ncc(F)c(Nc3ccc(OCC(N)=O)cc3)n2)ccc1N1CCN(C)CC1 [Compound I-39, N4-(4-Aminocarbonylmethoxyphenyl)-5-fluoro-N2-[3-methylaminocarbonyl-4-(4-methylpiperazin-1-yl)phenyl]-2,4-pyrimidinediamine]"
6,1.44,"Cc1noc(COc2ccc(Nc3nc(Nc4cccc(C#N)c4)ncc3F)c(C)c2)n1 [Compound I-116, N2-(3-Cyanophenyl)-5-fluoro-N4-[2-methyl-4-((3-methyl-1,2,4-oxadiazol-5-yl)methoxy)phenyl]-2,4-pyrimidinediamine]"
7,0.426,"N#CCOc1cccc(Nc2nc(Nc3cccc(C(N)=O)c3)ncc2F)c1 [Compound I-45, N2-(3-Aminocarbonylphenyl)-N4-(3-cyanomethoxyphenyl)-5-fluoro-2,4-pyrimidinediamine]"
8,0.171,"N#CCc1ccc(Nc2nc(Nc3ccc(C(N)=O)cc3)ncc2F)cc1 [Compound I-67, N2-(4-Aminocarbonylphenyl)-N4-(4-cyanomethylphenyl)-5-fluoro-2,4-pyrimidinediamine]"
9,0.0422,"N#CCOc1cccc(Nc2nc(Nc3ccc(CC#N)cc3)ncc2F)c1 [Compound I-66, N4-(3-Cyanomethoxyphenyl)-N2-(4-cyanomethylphenyl)-5-fluoro-2,4-pyrimidinediamine]"
10,0.156,"N#CCOc1ccc(Nc2nc(Nc3cccc(C(N)=O)c3)ncc2F)cc1Cl [Compound I-99, N2-(3-Aminocarbonylphenyl)-N4-(3-chloro-4-cyanomethoxyphenyl)-5-fluoro-2,4-pyrimidinediamine]"
11,0.265,"CNC(=O)c1cc(Nc2ncc(F)c(Nc3ccc(OCc4noc(C)n4)cc3)n2)ccc1N1CCN(C)CC1 [Compound I-63, 5-Fluoro-N2-[3-methylaminocarbonyl-4-(4-methylpiperazin-1-yl)phenyl]-N4-[4-((5-methyl-1,2,4-oxadiazol-3-yl)methoxy)phenyl]-2,4-pyrimidinediamine]"
12,0.255,"Cc1cc(Nc2nc(Nc3cccc(C(N)=O)c3)ncc2F)cc(C)c1OC(C)C#N (stereo not shown) [Compound I-96, N2-(3-Aminocarbonylphenyl)-N4-[4-(1-cyanoethoxy)-3,5-dimethylphenyl]-5-fluoro-2,4-pyrimidinediamine]"
13,0.596,"Cc1nc(COc2ccc(Nc3nc(Nc4cccc(C#N)c4)ncc3F)cc2)no1 [Compound I-59, N2-(3-Cyanophenyl)-5-fluoro-N4-[4-((5-methyl-1,2,4-oxadiazol-3-yl)methoxy)phenyl]-2,4-pyrimidinediamine]"
14,4.82,"CCc1cc(Nc2ncc(F)c(Nc3ccc4c(c3)NC(=O)CO4)n2)cc(C#N)c1Cl [II-27, N2-(4-Chloro-3-cyano-5-ethylphenyl)-5-fluoro-N4-(3-oxo-2H,4H-benzo[1,4]oxazin-6-yl)-2,4-pyrimidinediamine]"
15,0.35,"CC(C#N)Oc1ccc(Nc2nc(Nc3cccc(C(N)=O)c3)ncc2F)cc1 (stereo not shown) [Compound I-82, N2-(3-Aminocarbonylphenyl)-N4-[4-(1-cyanoethoxy)phenyl]-5-fluoro-2,4-pyrimidinediamine]"
16,1.05,"Cc1noc(COc2ccc(Nc3nc(Nc4cccc(C#N)c4)ncc3F)cc2)n1 [Compound I-111, N2-(3-Cyanophenyl)-5-fluoro-N4-[4-((3-methyl-1,2,4-oxadiazol-5-yl)methoxy)phenyl]-2,4-pyrimidinediamine]"
17,0.0797,"N#CCOc1ccc(Nc2nc(Nc3ccc(CC#N)cc3)ncc2F)cc1 [Compound I-64, N4-(4-Cyanomethoxyphenyl)-N2-(4-cyanomethylphenyl)-5-fluoro-2,4-pyrimidinediamine]"
18,0.0709,"N#CCOc1ccc(Nc2nc(Nc3cccc(C#N)c3)ncc2F)cc1 [Compound I-30, N4-(4-Cyanomethoxyphenyl)-N2-(3-cyanophenyl)-5-fluoro-2,4-pyrimidinediamine]"
19,7.19,"N#CCc1ccc(Nc2nc(Nc3ccc(C#N)cc3)ncc2F)cc1 [Compound I-69, N4-(4-Cyanomethylphenyl)-N2-(4-cyanophenyl)-5-fluoro-2,4-pyrimidinediamine]"
20,0.35,"N#CCOc1ccc(Nc2ncc(F)c(Nc3ccc(OCC#N)c(Cl)c3)n2)cc1Cl [Compound I-107, N2,N4-Bis(3-chloro-4-cyanomethoxyphenyl)-5-fluoro-2,4-pyrimidinediamine]"
21,0.287,"CC1(C)Oc2ccc(Nc3nc(Nc4ccc5c(c4)C(=O)NCC5)ncc3F)nc2NC1=O [IV-1, N4-[2,2-Dimethyl-3-oxo-4H-5-pyrido[1,4]oxazin-6-yl]-5-fluoro-N2-(I-oxo-1,2,3,4-tetrahydroisoquinolin-7-yl)-2,4-pyrimidinediamine]"
22,0.182,"CN1CCN(c2ccc(Nc3ncc(F)c(Nc4cccc(OCC(N)=O)c4)n3)cc2C(N)=O)CC1 [Compound I-50, N4-(3-Aminocarbonylmethoxyphenyl)-N2-[3-aminocarbonyl-4-(4-methylpiperazin-1-yl)phenyl]-5-fluoro-2,4-pyrimidinediamine]"

# Same assay, conditions: human Ramos B cells, compound 1 hour, IL-4 50 units/mL for 20-24 hours, anti-CD23-PE FACS; read-out: Example 2 (IC50)
row,IC50 [µM],Compound
1,0.0809,"CNC(=O)COc1cccc(Nc2ncc(Br)c(Nc3ccc4c(c3)OCCO4)n2)c1 [II-1, 5-Bromo-N4-(3,4-ethylenedioxyphenyl)-N2-[3-(N-methylaminocarbonylmethyleneoxy)phenyl]-2,4-pyrimidinediamine]"
2,1.73,"CN1CCN(C(=O)c2ccc(Nc3ncc(F)c(Nc4ccc(CC#N)cc4)n3)cc2)CC1 [Compound I-73, N4-(4-Cyanomethylphenyl)-5-fluoro-N2-[4-((4-methylpiperazin-1-yl)carbonyl)phenyl]-2,4-pyrimidinediamine]"
3,16.1,"N2-(4-Chloro-3-cyano-5-ethyl phenyl)-N4-(2,2-dimethyl-3-oxo-4H-5-pyrido[1,4]oxazin-6-yl)-5-fluoro-2,4-pyrimidinediamine [II-26]"
4,0.0285,"CNC(=O)COc1cccc(Nc2ncc(C)c(Nc3ccc4c(c3)NC(=O)CO4)n2)c1 [II-5, 5-Methyl-N2-[3-(N-methylaminocarbonylmethyleneoxy)phenyl]-N4-(3-oxo-2H,4H-benzo[1,4]oxazin-6-yl)-2,4-pyrimidinediamine]"
5,1.01,"N2-[1-(2-(N-Morpholinyl)ethylaminocarbonyl)-1H-indol-6-yl]-N4-[4-(2-propynyloxy)phenyl]-2,4-pyrimidinediamine [VI-2]"
6,0.149,"5-Fluoro-N2-[2-(2-(N-morpholinyl)ethylaminocarbonyl)benzofuran-5-yl]-N4-[4-(2-propynyloxy)phenyl]-2,4-pyrimidinediamine [III-3]"
7,0.0362,"CNC(=O)COc1cccc(Nc2ncc(F)c(Nc3ccc4c(c3)N(CC#N)C(=O)CS4)n2)c1 [II-12, N4-(4-Cyanomethyl-3-oxo-2H-benzo[1,4]thiazin-6-yl)-5-fluoro-N2-[3-(N-methylaminocarbonylmethyleneoxy)phenyl]-2,4-pyrimidinediamine]"

row,Compound,IC50 [µM]
1,"Cc1noc(COc2cccc(Nc3nc(Nc4cccc(C(N)=O)c4)ncc3F)c2)n1 [Compound I-128, N2-(3-Aminocarbonylphenyl)-5-fluoro-N4-[3-((3-methyl-1,2,4-oxadiazol-5-yl)methyleneoxy)phenyl]-2,4-pyrimidinediamine]",0.206
2,"CCN(CC)CCNC(=O)c1ccc(Nc2ncc(F)c(Nc3ccc(OCc4cc(C)on4)cc3)n2)cc1 [Compound I-127, N2-[4-(2-(N,N-Diethylamino)ethylaminocarbonyl)phenyl]-5-fluoro-N4-[4-((5-methylisoxazol-3-yl)methyleneoxy)phenyl]-2,4-pyrimidinediamine]",0.00933
3,"Cc1noc(COc2cccc(Nc3nc(Nc4ccc(CC#N)cc4)ncc3F)c2)n1 [Compound I-129, N2-(4-Cyanomethylphenyl)-5-fluoro-N4-[3-((3-methyl-1,2,4-oxadiazol-5-yl)methyleneoxy)phenyl]-2,4-pyrimidinediamine]",1.29
4,"CN1CCN(C(=O)c2ccc(Nc3ncc(F)c(Nc4cccc(OCC(N)=O)c4)n3)cc2)CC1 [Compound I-49, N4-(3-Aminocarbonylmethoxyphenyl)-5-fluoro-N2-[4-((4-methylpiperazin-1-yl)carbonyl)phenyl]-2,4-pyrimidinediamine]",2.29
5,"Cc1noc(COc2ccc(N(C)c3nc(Nc4ccc(C(N)=O)cc4)ncc3F)cc2)n1 [Compound I-15, N2-(4-Aminocarbonylphenyl)-5-fluoro-N4-methyl-N4-[4-((3-methyl-1,2,4-oxadiazol-5-yl)methyleneoxy)phenyl]-2,4-pyrimidinediamine]",0.693
